Data as given in patent US20070227557A1, “THICKENED SURFACTANT-FREE CLEANSING AND MULTIFUNCTIONAL LIQUID COATING COMPOSITIONS CONTAINING NONREACTIVE ABRASIVE SOLID PARTICLES AND AN ORGANOSILANE QUATERNARY COMPOUND AND METHODS OF USING” (priority 2005, published 2007).

Experiment: Thickening / thixotropy of aqueous mixtures
Format: physicochemical
Settings: standard test formulation
Method: “thixotropic” or “thixotropically” means, with reference to a thickened composition, when applied to a vertical surface, it will cling until disturbed by wiping or massaging in biomechanical cleansing.
The sodium dodecylbenzene sulfonate base employed in Examples 34-46 was prepared as follows: 90.07% (Wt.) of deionized water was placed in the blender beaker and 1.104% sodium hydroxide pellets added and the mixture stirred until all sodium hydroxide dissolved. 8.826% of dodecylbenzene sulfonic acid (98% purity) was added slowly with good stirring until all the dodecylbenzene sulfonic acid dissolved (reacted with the sodium hydroxide). The pH of the resulting solution was […]. The final solution contained 9.42% sodium dodecylbenzene sulfonate. Approximately 450 gms of the base, containing 408 gms of water and 42.4 gms of the sodium dodecylbenzene sulfonate, were used in all the examples of TABLE VI. 124 gms of aluminum oxide grit (A2-325 and P-6 grades from Altmatis) were employed in the compositions of TABLE VI.
The alkyl alcohol ethoxylates were added slowly with good mixing employing a Silverson L4RT-A laboratory mixer with the pump head mixer. As the mixture thickened, addition of the alkyl alcohol ethoxylates was slowed until the thickened mixture had the consistency of whipped cream. If the desired thickening was achieved, it was so noted as “YES”, if not, it was noted as “NO”.

Molecule	formation of stable thickened compositions
CCCCCCCCCCCCc1ccc(S(=O)(=O)[O-])cc1.[Na+] [sodium docecylbenzene sulfonate]	did form stable thickened compositions
CCCCCCCCCCCCS(=O)(=O)[O-].[Na+] [sodium lauryl (C12) sulfonate]	did not result in stable thickened compositions
CCCCCCCCS(=O)(=O)[O-].[Na+] [sodium octane sulfonate]	did not result in stable thickened compositions
sodium alkyl(C11-16) sulfonate	did not result in stable thickened compositions
